Reference: patent US20150126364A1, “1,3-DIARYL-SUBSTITUTED HETEROCYCLIC PESTICIDES” (E I DU PONT DE NEMOURS AND COMPANY, priority 2012, published 2015)

System: potato leafhopper (Empoasca fabae)
Assay: Test D: control of potato leafhopper on Soleil bean plant, contact and/or systemic
Type: in vivo
Conditions: 144 h, 6 days, very good to excellent control, read-out: control efficacy: mortality; for mortality at 250 ppm: sprayed at 250 ppm; for mortality at 50 ppm: sprayed at 50 ppm
Method: Test compounds were formulated using a solution containing 10% acetone, 90% water and 300 ppm X-77® Spreader Lo-Foam Formula non-ionic surfactant containing alkylarylpolyoxyethylene, free fatty acids, glycols and isopropanol (Loveland Industries, Inc. Greeley, Colo., USA). The formulated compounds were applied in 1 mL of liquid through a SUJ2 atomizer nozzle with ⅛ JJ custom body (Spraying Systems Co., Wheaton, Ill., USA) positioned 1.27 cm (0.5 inches) above the top of each test unit. Test compounds were sprayed at 250 ppm and/or 50 ppm, and replicated three times. After spraying of the formulated test compound, each test unit was allowed to dry for 1 h and then a black, screened cap was placed on top. The test units were held for 6 days in a growth chamber at 25° C. and 70% relative humidity. Plant feeding damage was then visually assessed based on foliage consumed.
For evaluating control of potato leafhopper (Empoasca fabae) through contact and/or systemic means, the test unit consisted of a small open container with a 5-6-day-old Soleil bean plant (primary leaves emerged) inside. White sand was added to the top of the soil and one of the primary leaves was excised prior to application.
Test compounds were formulated and sprayed at 250 ppm and/or 50 ppm, and the tests were replicated three times as described for Test A. After spraying, the test units were allowed to dry for 1 h before they were post-infested with 5 potato leafhoppers (18-21-day-old adults). A black, screened cap was placed on the top of each test unit, and the test units were held for 6 days in a growth chamber at 24° C. and 70% relative humidity. Each test unit was then visually assessed for insect mortality.

SMILES | mortality at 250 ppm | mortality at 50 ppm
Cn1c(-c2cccc(C(F)(F)F)c2)nc(CN2CCOCC2)c1-c1ccc(F)cc1F (single isomer, unassigned) [Compound 49, 4-[[5-(2,4-difluorophenyl)-1-methyl-2-[3-(trifluoromethyl)phenyl]-1H-imidazol-4-yl]methyl]morpholine] | ≥ 80% | 
COC(=O)C1CCN(Cc2cc(-c3cccc(C(F)(F)F)c3)nn2-c2ccc(F)cc2)CC1 [Compound 6, methyl 1-[[1-(4-fluorophenyl)-3-[3-(trifluoromethyl)phenyl]-1H-pyrazol-5-yl]methyl]-4-piperidinecarboxylate] | ≥ 80% | ≥ 80%
Fc1ccc(-c2[nH]c(-c3cccc(C(F)(F)F)c3)nc2CN2CCOCC2)c(F)c1 [Compound 44, 4-[[5-(2,4-difluorophenyl)-2-[3-(trifluoromethyl)phenyl]-1H-imidazol-4-yl]methyl]morpholine] | ≥ 80% | ≥ 80%
CC(=O)NC1CCN(Cc2oc(-c3cccc(C(F)(F)F)c3)nc2-c2ccc(F)cc2)CC1 [Compound 65, N-[1-[[4-(4-fluorophenyl)-2-[3-(trifluoromethyl)phenyl]-5-oxazolyl]methyl]-4-piperidinyl]acetamide] | ≥ 80% | ≥ 80%
N#CC1CCN(Cc2c(-c3ccc(F)cc3F)nc3n2CCc2ccc(Cl)cc2-3)CC1 [Compound 151] | ≥ 80% | 
N#CC1CCN(Cc2c(-c3ccc(F)cc3F)nc3n2CCc2cc(Cl)ccc2-3)CC1 [Compound 155] | ≥ 80% | 
